{"source": "patent US10100088B2", "about": "“Glycopeptide derivatives for the preservation and protection of biological materials and microorganisms” (TFCHEM, priority 2014, dated 2018)", "key": {"[1]": {"test_system": "human neonatal skin fibroblasts (CCD-27SK, ATCC CRL-1475)", "experiment": "Starvation (serum deprivation) stress, neutral red uptake viability", "format": "cell-based", "procedure": "Induced stresses were performed as follow: Starvation\n(§1) The neutral red uptake assay was used for the determination of cell viability. This assay is based on the ability of viable cells to incorporate and bind the supravital dye neutral red in its lysosomes. So, only the viable cells are dyed. At different times after the stress assay (T0), the plates were incubated with neutral red solution for 3.5 hours. The cells are subsequently washed, the dye is extracted in each well and the absorbance is read using a spectrophotometer.\n(§2) For sampling, 1 mL of DMEM (without phenol red indicator) with neutral red (OD=0.110) was added to the cells for 3.5 hours (37° C., 10% CO2). After incubation, the medium was removed, two washes of PBS were realized and 1 mL of extraction solution (absolute ethanol 49%, ultrapure water 49%, glacial acetic acid 2%) was added. Plates were placed 15 minutes on rotary shaker in the dark before reading OD at 540 nm.\nThe OD540 nm average value of positive control was considered as 100% of viability.\n(§3) The percentage of viability for each assay was calculated as follow: % viability assay=(OD540 nm of tested solution−blank)*100/(OD540 nm of positive control−blank)."}, "[2]": {"test_system": "human neonatal skin fibroblasts", "experiment": "UV stress (11 J/cm^2), neutral red uptake viability", "format": "cell-based", "procedure": "as §1, §2, §3"}, "[3]": {"experiment": "Comparative stability towards basic conditions (NaOD in D2O), 1H NMR", "format": "physicochemical", "procedure": "In a first set of experiments (experiments 1 to 7 in table 9), X (10 mg, 1.72 10^−2 mmol) was reacted with 2 to 8 equivalents of NaOD in a total volume of 355 μL of deuterium oxide ([X]=4.8 10^−2 mmol·mL^−1) during 2 h 30 before being acidified with 1M DCl in D2O. To be sure that all compounds in solution are in their acidic form, the equivalents of DCl are adjusted to 3 more equivalents of DCl than the amount required to neutralize the solution (nDCl=nNaOD+3). The volume was adjusted to 544 μL with deuterium oxide.\nIn a second set of experiments (experiments 8 to 14 in table 9), 17 (10 mg, 1.66 10^−2 mmol) was reacted with 2 to 8 equivalents of NaOD in a total volume of 343 μL of deuterium oxide ([17]=4.8 10^−2 mmol·mL^−1) during 2 h 30 before being acidified with 1M DCl in D2O. To be sure that all compounds in solution are in their acidic form, the equivalents of DCl are adjusted to 3 more equivalents of DCl than the amount required to neutralize the solution (nDCl=nNaOD+3). The volume was adjusted to 526 μL with deuterium oxide.\n^1H NMR analyses were performed on each experiment. It is why experiments were realized in deuterium oxide and using 1M NaOD in D2O as base and 1M DCl in D2O as acid.\n^1H NMR allows indeed the determination of the amount of compound X1 formed, by comparison between the integration corresponding to the methylene group of the lysine side chain connected to the nitrogen atom in X (CH2NGP) (3.3 ppm) and the integrationof the same methylene group in X1 (CH2Lys hydrolyzed) (3.0 ppm).\nTo confirm the structure of compounds X1 and X2, resulting from hydrolysis of X, the following experiment was realized, in which X (10 mg, 1.72 10^−2 mmol) was reacted with 8 equivalents of NaOD in a total volume of 355 μL of deuterium oxide ([X]=4.8 10^−2 mmol·mL^−1) during 3 days before being acidified with 1M DCl in D2O. In these conditions, almost the totality of compound X is hydrolyzed, the percentage of hydrolysis of compound X being 85% as determined by ^1H NMR as evidence in table 11."}}, "data": [{"compound": "C[C@H](NC(=O)[C@H](C)NC(=O)[C@@H](N)CCCCNCC(F)(F)C1(O)O[C@H](CO)[C@H](O)[C@H](O)[C@H]1O)C(=O)O.Cl.Cl", "note": "(stereo partly shown) [Compound 17]", "values": [{"measurement": "Percentage of viability", "setting": "[1]; D 1 after serum deprivation, 5 mg/mL (Table 2)", "value": 75, "unit": "%"}, {"measurement": "Percentage of viability", "setting": "[1]; D 1 after serum deprivation, 10 mg/mL (Table 2)", "value": 71, "unit": "%"}, {"measurement": "Percentage of viability", "setting": "[1]; D 4 after serum deprivation, 5 mg/mL (Table 2)", "value": 54, "unit": "%"}, {"measurement": "Percentage of viability", "setting": "[1]; D 4 after serum deprivation, 10 mg/mL (Table 2)", "value": 61, "unit": "%"}, {"measurement": "Percentage of viability", "setting": "[1]; D4 after serum deprivation, 10 mg/mL (Table 4)", "value": 116, "unit": "%"}, {"measurement": "Percentage of viability", "setting": "[1]; D 7 after serum deprivation, 5 mg/mL (Table 2)", "value": 45, "unit": "%"}, {"measurement": "Percentage of viability", "setting": "[1]; D 7 after serum deprivation, 10 mg/mL (Table 2)", "value": 55, "unit": "%"}, {"measurement": "preservative/protective effect on skin fibroblasts (in words)", "setting": "[1]; starvation medium", "value": "significant preservative/protective effect"}, {"measurement": "preservative/protective effect against UV stress (in words)", "setting": "[2]", "value": "preservative/protective effect against UV stress"}, {"measurement": "Percentage of viability following UV stress (11 J/cm^2)", "setting": "[2]; 1 h after irradiation, 5 mg/mL", "value": 55, "unit": "%"}, {"measurement": "Percentage of viability following UV stress (11 J/cm^2)", "setting": "[2]; 1 h after irradiation, 10 mg/mL", "value": 53, "unit": "%"}, {"measurement": "Percentage of viability following UV stress (11 J/cm^2)", "setting": "[2]; 1 h after irradiation, 15 mg/mL", "value": 50, "unit": "%"}, {"measurement": "Percentage of viability following UV stress (11 J/cm^2)", "setting": "[2]; 3 h after irradiation, 5 mg/mL", "value": 63, "unit": "%"}, {"measurement": "Percentage of viability following UV stress (11 J/cm^2)", "setting": "[2]; 3 h after irradiation, 10 mg/mL", "value": 46, "unit": "%"}, {"measurement": "Percentage of viability following UV stress (11 J/cm^2)", "setting": "[2]; 3 h after irradiation, 15 mg/mL", "value": 50, "unit": "%"}, {"measurement": "Percentage of viability following UV stress (11 J/cm^2)", "setting": "[2]; 24 h after irradiation, 5 mg/mL", "value": 82, "unit": "%"}, {"measurement": "Percentage of viability following UV stress (11 J/cm^2)", "setting": "[2]; 24 h after irradiation, 10 mg/mL", "value": 94, "unit": "%"}, {"measurement": "Percentage of viability following UV stress (11 J/cm^2)", "setting": "[2]; 24 h after irradiation, 15 mg/mL", "value": 84, "unit": "%"}, {"measurement": "growth or regenerative effect on stressed cells (in words)", "setting": "[2]; viability increased in time after UV", "value": "growth or regenerative effect"}, {"measurement": "% hydrolyzed", "setting": "[3]; 2 eq NaOD, 2 h 30, D2O", "value": 0, "unit": "%"}, {"measurement": "stability towards basic conditions (in words)", "setting": "[3]; 2 to 8 eq NaOD, 2 h 30, 1H NMR", "value": "absence of degradation"}, {"measurement": "% hydrolyzed", "setting": "[3]; 3 eq NaOD, 2 h 30, D2O", "value": 0, "unit": "%"}, {"measurement": "% hydrolyzed", "setting": "[3]; 4 eq NaOD, 2 h 30, D2O", "value": 0, "unit": "%"}, {"measurement": "% hydrolyzed", "setting": "[3]; 5 eq NaOD, 2 h 30, D2O", "value": 0, "unit": "%"}, {"measurement": "% hydrolyzed", "setting": "[3]; 6 eq NaOD, 2 h 30, D2O", "value": 0, "unit": "%"}, {"measurement": "% hydrolyzed", "setting": "[3]; 7 eq NaOD, 2 h 30, D2O", "value": 0, "unit": "%"}, {"measurement": "% hydrolyzed", "setting": "[3]; 8 eq NaOD, 2 h 30, D2O", "value": 0, "unit": "%"}, {"measurement": "% hydrolyzed", "setting": "[3]; Control, 0 eq NaOD", "value": 0, "unit": "%"}]}]}
